In series [1] the target is T1, α3-containing GABAA receptors (human α3, β3, γ2L) (Homo sapiens, UniProt P18507+P34903).
T1 construct: expressed in transfected cells; host or cells: Xenopus oocytes (cDNA injected, alpha:beta:gamma 1:1:3)
The series is described as follows: Potentiation of GABA evoked currents, recombinant GABA-A receptors in Xenopus oocytes, two-electrode voltage clamp. Type of series: cell-based. The procedure:
(§1) FIG. 2 is a plot showing the concentration-dependent potentiation of GABA evoked currents by (S)-zopiclone. For all experiments, human cDNA encoding each subunit was injected in oocytes in a stoichiometry of 1:1:3 (alpha, beta, gamma subunits). Approximately 24 hours later, GABA evoked currents (using a concentration of GABA equal to the EC10) were recorded from oocytes using a two-electrode voltage clamp on a robotic oocyte platform and a constant voltage of −80 mV. GABA was applied to the oocytes via a perfusion system for 20 seconds and then removed. An inward deflection of the current trace was recorded and subsequently compared to the responses resulting from applying the same concentration of GABA plus varying concentrations of the test compound ((S)-zopiclone). A doubling of the GABA evoked current is represented as a potentiation ratio of 1.0.
(§2) The GABA-A receptor is gated by GABA, and ligands at the benzodiazepine site potentiate GABA-evoked currents. It is well-established in the scientific literature that classical benzodiazepines potentiate GABA evoked chloride currents through GABA-A receptors. The efficacies of classical benzodiazepines can be described as “full modulators” referring to their ability to increase the chloride currents induced by sub-maximal GABA concentrations. The action of (S)-zopiclone on GABA-A receptors was evaluated by examining their effects on electrophysiological recordings in a recombinant expression system.
(§3) Recombinant GABA-A receptors were expressed in Xenopus oocytes by injecting cDNA encoding the human β3, γ2L, and each of α1, α2, α3, or α5 subunits in turn to assemble functional channels. Channel activity was measured using two-electrode voltage clamp in whole cell configuration on a robotic workstation. […] The potentiation ratio was then measured as the fold-increase in current generated by a (S)-zopiclone plus an EC10 of GABA, compared to the current generated by just the EC10 of GABA alone. These potentiation ratios were measured at a range of (S)-zopiclone concentrations to generate a subsequent concentration response curve at each of the subtypes using between 2 and 7 oocytes. […]
(§4) For all experiments, human cDNA encoding each subunit was injected in oocytes in a stoichiometry of 1:1:3 (alpha, beta, gamma subunits). Approximately 24 hours later, GABA evoked currents (using a concentration of GABA equal to the EC10) were recorded from oocytes using a two-electrode voltage clamp on a robotic oocyte platform and a constant voltage of −80 mV. […] An inward deflection of the current trace was recorded and subsequently compared to the responses resulting from applying the same concentration of GABA plus varying concentrations of the test compound [(S)-zopiclone]. […]
For orientation: Two-electrode voltage clamp is typically applied to oocytes expressing channels or transporters.

The target in series [2] is T2, α5-containing GABAA receptors (human α5, β3, γ2L) (Homo sapiens, UniProt P18507+P31644).
T2 construct: expressed in transfected cells; host or cells: Xenopus oocytes (cDNA injected, alpha:beta:gamma 1:1:3)
Described as above. Type of series: cell-based. How it is done:
as §1, §2, §3, §4

Series [3] concerns the target T3, α2-containing GABAA receptors (human α2, β3, γ2L) (Homo sapiens, UniProt P18507+P47869).
T3 construct: expressed in transfected cells; host or cells: Xenopus oocytes (cDNA injected, alpha:beta:gamma 1:1:3)
Described as above. Type of series: cell-based. How it is done: as §1, §2, §3, §4

Series [4] has as its target T4, α1-containing GABAA receptors (human α1, β3, γ2L) (Homo sapiens, UniProt P14867+P18507).
T4 construct: expressed in transfected cells; host or cells: Xenopus oocytes (cDNA injected, alpha:beta:gamma 1:1:3)
The series is described as above. Type of series: cell-based. How it is done: as §1, §2, §3, §4

Series [5] is described as follows: Clinical study of eszopiclone in healthy volunteers: plasma concentration-time profiles after oral administration. Type of series: in vivo, human. As to conditions: post-dose. The procedure: FIG. 1 is a plot of mean (S)-zopiclone plasma concentration-time profiles following oral administration of (S)-zopiclone.
A clinical study of eszopiclone in healthy volunteers was performed using art-recognized methodology.

The subject of series [6] is healthy adult male human subjects. The series is described as follows: EEG study (quantitative wake EEG) of single doses of eszopiclone versus placebo. Type of series: in vivo. How it is done:
A study was conducted to evaluate the pharmacodynamic (quantitative wake electroencephalogram (qEEG) and auditory P300 (evoked potentials (EPs)) of four doses of eszopiclone, relative to placebo, in healthy adult male human subjects. The study was single-blind, placebo-controlled, ascending, single dose. Subjects received single doses of immediate release formulations that contained 0.3 mg of eszopiclone, 0.6 mg of eszopiclone, 0.9 mg of eszopiclone or 2.0 mg of eszopiclone.
Changes in beta EEG activity are interpreted as indicating an anxiolytic effect (Ansseau et al, Neuropsychobiology 1984, 12(4):255-9; Buchsbaum et al, Biol. Psychiatry, 1985, 20(8):832-42; Macher et al, Human psychopharmacology, 1990 (eds I Hindmarch and P D Stonier), Vol 3, 10-2; Mandema and Danhof, Clin Pharmacokinet, 1992, 23(3):191-215.
In this study, statistical EEG maps were obtained comparing EEG power values for each dose of eszopiclone versus placebo. […] The dose effect is further illustrated in the graphically depicted results of FIG. 4 which follows.
Classically, delta activity in pharmaco-EEG indicates a sedative effect of the drug under study. Delta EEG activity is clearly modified when the sedative drug effect has reached a high threshold.
Conclusions regarding a possible sedative effect or a trend to impair the subject's arousal should also include analyses of a drug's effects on alpha EEG activity, which reflect decreases in subject's arousal (pro sedative effect).

T3 sequence (P47869 29-451): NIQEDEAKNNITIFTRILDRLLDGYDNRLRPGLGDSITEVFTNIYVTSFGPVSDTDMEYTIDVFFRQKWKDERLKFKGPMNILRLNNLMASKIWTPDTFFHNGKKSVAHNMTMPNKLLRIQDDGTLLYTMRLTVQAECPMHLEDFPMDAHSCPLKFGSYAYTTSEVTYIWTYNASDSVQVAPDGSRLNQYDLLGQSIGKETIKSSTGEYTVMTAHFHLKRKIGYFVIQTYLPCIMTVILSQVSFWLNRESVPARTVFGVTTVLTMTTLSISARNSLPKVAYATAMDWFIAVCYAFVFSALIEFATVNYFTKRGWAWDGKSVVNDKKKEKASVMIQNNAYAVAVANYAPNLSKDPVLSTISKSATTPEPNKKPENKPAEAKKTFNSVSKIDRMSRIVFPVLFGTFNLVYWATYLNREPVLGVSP
T3 sequence (P28472 26-473 partner): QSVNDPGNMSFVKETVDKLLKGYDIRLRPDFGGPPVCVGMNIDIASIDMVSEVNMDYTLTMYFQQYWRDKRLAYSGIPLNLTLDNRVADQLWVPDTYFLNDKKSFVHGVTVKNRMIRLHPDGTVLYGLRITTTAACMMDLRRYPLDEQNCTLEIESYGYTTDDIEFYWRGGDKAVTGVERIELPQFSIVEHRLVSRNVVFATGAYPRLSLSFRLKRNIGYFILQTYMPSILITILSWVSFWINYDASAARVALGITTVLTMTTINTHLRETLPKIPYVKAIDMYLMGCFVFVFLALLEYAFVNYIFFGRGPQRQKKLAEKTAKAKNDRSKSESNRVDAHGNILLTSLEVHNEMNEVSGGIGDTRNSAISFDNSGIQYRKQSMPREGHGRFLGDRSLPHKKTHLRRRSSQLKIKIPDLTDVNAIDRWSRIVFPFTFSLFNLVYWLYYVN
T3 sequence (P18507 40-475): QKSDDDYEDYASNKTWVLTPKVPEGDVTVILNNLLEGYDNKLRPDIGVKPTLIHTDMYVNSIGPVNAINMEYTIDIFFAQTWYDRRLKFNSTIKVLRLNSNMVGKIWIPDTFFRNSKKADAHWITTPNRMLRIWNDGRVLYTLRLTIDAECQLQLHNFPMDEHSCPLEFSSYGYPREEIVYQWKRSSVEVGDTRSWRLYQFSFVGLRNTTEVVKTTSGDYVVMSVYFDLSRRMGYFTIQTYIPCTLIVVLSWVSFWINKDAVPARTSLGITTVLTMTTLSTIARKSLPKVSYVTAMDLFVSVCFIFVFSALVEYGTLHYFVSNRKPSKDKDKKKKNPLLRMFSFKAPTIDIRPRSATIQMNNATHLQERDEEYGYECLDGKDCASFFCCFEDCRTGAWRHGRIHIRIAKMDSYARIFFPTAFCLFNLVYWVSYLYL
T4 sequence (P14867 28-456): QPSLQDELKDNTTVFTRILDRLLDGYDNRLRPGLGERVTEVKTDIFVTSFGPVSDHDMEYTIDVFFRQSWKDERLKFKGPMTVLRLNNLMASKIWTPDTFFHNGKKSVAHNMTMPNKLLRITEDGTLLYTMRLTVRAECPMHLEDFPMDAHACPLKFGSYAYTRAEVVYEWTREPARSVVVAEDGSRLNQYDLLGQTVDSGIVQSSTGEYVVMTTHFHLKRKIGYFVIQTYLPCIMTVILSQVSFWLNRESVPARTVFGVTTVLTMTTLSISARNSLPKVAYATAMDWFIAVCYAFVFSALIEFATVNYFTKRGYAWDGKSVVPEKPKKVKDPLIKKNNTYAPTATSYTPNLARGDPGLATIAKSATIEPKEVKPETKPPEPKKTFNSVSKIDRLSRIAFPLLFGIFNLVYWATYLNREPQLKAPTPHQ
T4 sequence (P28472 26-473 partner): as the sequence (P28472 26-473 partner) above
T4 sequence (P18507 40-475): as the sequence (P18507 40-475) above
T1 sequence (P34903 29-492): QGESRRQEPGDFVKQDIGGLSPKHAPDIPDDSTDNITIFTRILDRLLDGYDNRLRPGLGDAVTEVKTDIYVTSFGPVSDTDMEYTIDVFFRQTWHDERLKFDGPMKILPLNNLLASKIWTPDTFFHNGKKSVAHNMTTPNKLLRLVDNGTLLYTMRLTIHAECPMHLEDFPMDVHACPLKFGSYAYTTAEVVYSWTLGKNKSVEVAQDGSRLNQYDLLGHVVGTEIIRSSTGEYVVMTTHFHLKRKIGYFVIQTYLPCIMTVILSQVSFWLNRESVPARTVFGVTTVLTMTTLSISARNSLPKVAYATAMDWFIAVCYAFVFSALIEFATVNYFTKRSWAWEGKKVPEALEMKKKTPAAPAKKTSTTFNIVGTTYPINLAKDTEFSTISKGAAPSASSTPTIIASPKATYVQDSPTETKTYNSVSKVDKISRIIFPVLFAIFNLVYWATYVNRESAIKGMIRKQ
T1 sequence (P28472 26-473 partner): as the sequence (P28472 26-473 partner) above
T1 sequence (P18507 40-475): as the sequence (P18507 40-475) above
T2 sequence (P31644 32-462): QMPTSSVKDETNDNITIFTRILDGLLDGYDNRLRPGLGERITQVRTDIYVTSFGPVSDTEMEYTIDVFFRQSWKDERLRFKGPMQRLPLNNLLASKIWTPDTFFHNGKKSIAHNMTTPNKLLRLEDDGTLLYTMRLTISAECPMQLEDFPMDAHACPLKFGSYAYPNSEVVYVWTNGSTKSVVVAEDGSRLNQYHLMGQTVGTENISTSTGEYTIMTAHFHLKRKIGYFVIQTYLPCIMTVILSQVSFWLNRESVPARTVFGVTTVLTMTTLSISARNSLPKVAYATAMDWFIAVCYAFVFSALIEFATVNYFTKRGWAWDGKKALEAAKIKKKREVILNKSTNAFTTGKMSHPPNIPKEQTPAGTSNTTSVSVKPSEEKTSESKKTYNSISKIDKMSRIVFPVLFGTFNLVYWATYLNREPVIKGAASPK
T2 sequence (P28472 26-473 partner): as the sequence (P28472 26-473 partner) above
T2 sequence (P18507 40-475): as the sequence (P18507 40-475) above

`CN1CCN(C(=O)O[C@H]2c3nccnc3C(=O)N2c2ccc(Cl)cn2)CC1` [Eszopiclone, (+)-(5S)-6-(chloropyridin-2-yl)-7-oxo-6,7-dihydro-5H-pyrrolo[3,4-b]pyrazin-5-yl 4-methyl-piperazine-1-carboxylate]: the EC50 in series [1] worked out at 250 nM; in series [2], 40 nM; in series [3], 100 nM; in series [4], 30 nM. The “time of maximum mean (S)-zopiclone plasma concentrations” value in series [5] (fasted conditions) is 0.5 to 1.5 h; in series [5] (fed conditions), 2 to 3 h. For the same compound, the “Alpha EEG activity (arousal), change from placebo” value in series [6] (doses below 2.0 mg) was “did not exhibit major effects on arousal”; in series [6] (highest dose (2.0 mg)), “induces a significant impairment in the subject's arousal and possibly a sedative effect”. For the same compound, the “Delta EEG activity (sedative effect), change from placebo” value is listed as “induces a significant sedative effect” in series [6] (highest dose (2.0 mg)) and “do not have this side effect” in series [6] (other doses (0.3, 0.6, 0.9 mg)).

A word on the EC50: it is the midpoint of the concentration-response curve.
